# Read-outs that look alike come from different tables or passages of the source.
# Tests used:
# [1] = tested on: BRCA1/2 mutant ovary cancer; assay: Phase I clinical safety study, capsules; format: in vivo, human
# [2] = Long term stability studies; format: physicochemical; conditions: for Assay w/w, T12: 12 months; for Assay w/w, T0: start
# Hygroscopicity = format: physicochemical
# Solubility study = format: physicochemical
# PARP2 (aa2-583) = PARP2 (aa2-583) (Homo sapiens, UniProt Q9UGN5); assay: PARP2 PARylation chemiluminescent assay; format: biochemical; conditions: Crystalline Form C tested
# Chain of PARP2 (aa2-583) (Q9UGN5 2-583): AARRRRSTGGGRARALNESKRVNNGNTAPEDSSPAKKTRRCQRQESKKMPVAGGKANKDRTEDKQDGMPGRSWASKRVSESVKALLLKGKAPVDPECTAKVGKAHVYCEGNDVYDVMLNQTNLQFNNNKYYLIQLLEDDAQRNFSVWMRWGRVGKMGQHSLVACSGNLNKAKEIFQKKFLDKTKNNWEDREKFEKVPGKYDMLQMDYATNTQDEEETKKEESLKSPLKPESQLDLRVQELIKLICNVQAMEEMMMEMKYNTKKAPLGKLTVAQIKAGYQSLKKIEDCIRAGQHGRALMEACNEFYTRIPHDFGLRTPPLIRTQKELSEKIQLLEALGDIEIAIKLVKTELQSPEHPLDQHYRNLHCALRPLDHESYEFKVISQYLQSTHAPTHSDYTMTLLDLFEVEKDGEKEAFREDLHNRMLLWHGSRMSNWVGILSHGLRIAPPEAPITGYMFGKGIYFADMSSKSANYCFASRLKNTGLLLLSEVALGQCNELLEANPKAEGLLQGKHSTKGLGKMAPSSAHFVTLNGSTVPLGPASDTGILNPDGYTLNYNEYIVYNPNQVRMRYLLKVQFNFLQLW
# Experimental: PARP1 and PARP2 enzymes were from the assay kits, while TNKS1 and TNKS2 enzymes were produced in-house. The assays were performed according to the manufacture's instruction. Briefly, H2A and H2B proteins were immobilized on the surface of plates and then incubated with a serial dilution of compounds and the target enzyme for 0.5 hr. Then, biotinylated NAD and DNA (no DNA needed for TNKS1 or TNKS2) were added to the wells to initiate reactions. The biotinylated PARsylation product was measured by chemiluminescence after adding streptavidin-HRP and HRP substrates.
# [3] = tested on: BRCA1 mutation breast cancer xenograft; assay: BRCA1 mutation breast cancer xenograft model; format: in vivo; conditions: at much lower dose than olaparib
# Brain penetration = conditions: in vivo
# hERG current = hERG current (Homo sapiens, UniProt Q12809); assay: hERG current; format: cell-based
# Chain of hERG current (Q12809 whole entry): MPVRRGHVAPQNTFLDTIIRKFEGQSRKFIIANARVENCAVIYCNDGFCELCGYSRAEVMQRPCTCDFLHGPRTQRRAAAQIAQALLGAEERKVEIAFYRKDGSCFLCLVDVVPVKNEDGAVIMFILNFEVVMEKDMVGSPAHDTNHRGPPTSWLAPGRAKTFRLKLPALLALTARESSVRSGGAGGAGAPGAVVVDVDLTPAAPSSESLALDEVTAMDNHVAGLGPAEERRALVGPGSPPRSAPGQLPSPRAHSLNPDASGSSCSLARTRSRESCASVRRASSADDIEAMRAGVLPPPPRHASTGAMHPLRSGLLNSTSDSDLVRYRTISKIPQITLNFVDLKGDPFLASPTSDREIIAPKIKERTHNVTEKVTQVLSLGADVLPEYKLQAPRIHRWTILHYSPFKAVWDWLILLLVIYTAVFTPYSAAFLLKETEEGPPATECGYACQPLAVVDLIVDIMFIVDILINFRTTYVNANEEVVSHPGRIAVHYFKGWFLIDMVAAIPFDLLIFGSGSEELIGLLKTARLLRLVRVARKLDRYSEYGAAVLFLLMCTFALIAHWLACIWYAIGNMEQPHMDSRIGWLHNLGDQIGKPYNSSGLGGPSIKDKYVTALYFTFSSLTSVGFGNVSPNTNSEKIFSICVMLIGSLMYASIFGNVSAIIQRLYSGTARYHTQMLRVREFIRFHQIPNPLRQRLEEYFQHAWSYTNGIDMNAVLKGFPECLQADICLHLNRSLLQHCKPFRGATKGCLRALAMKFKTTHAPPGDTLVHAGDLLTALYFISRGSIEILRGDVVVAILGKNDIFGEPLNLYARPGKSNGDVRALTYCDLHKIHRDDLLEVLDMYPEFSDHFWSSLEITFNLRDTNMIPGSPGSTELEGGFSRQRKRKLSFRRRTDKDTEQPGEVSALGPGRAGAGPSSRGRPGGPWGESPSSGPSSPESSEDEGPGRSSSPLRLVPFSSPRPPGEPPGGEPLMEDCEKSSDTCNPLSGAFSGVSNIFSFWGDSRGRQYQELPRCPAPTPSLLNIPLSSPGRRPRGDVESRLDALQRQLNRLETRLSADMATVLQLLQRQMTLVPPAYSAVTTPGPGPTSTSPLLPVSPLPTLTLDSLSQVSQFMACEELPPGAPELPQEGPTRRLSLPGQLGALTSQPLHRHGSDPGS
# human CYP2B6 = assay: CYP2B6 induction; format: in vitro ADME
# Pharmacokinetics in rat = format: in vivo
# Experimental: (§1) The species used for the pharmacokinetic studies were rat and dog. Compound A had good to excellent oral bioavailability (>40%) in both species. Elimination half-lives ranged from 3.1 to 5.0 hours in rats and 1.5 to 2.5 hours in dogs after oral administration. […] Steady state volume of distribution in rats and dogs was 2.4 L/kg and 1.9 L/kg, respectively.
# human CYP1A2 = assay: CYP1A2 induction; format: in vitro ADME
# [4] = Excretion after oral administration in rats; format: in vivo
# [5] = Metabolism in monkey liver microsomes; format: in vitro ADME
# [6] = Plasma protein binding, dog; format: in vitro ADME; conditions: read-out: Plasma protein binding (PPB) (converted)
# [7] = Nonclinical toxicity, single and repeat dose studies up to 28 days; format: in vivo; conditions: rats and dogs
# Text: The nonclinical toxicity profile of Compound A was characterized in both rats and dogs in single and repeat dose studies up to 28 days. The adverse effects included decrease in body weights or body weight gain and food consumption; decrease in WBC, NEUT, LYMP, RBC, HGB, HCT and APTT; and increase in PLT. The bone marrow was considered to be the major target organ and the severity of histopathological changes ranged from minimal to marked. […] […]. In summary, the available toxicological data are adequate to support the clinical development of Compound A on late stage and advanced cancer patients in phase I study. The toxicity could be monitored and manageable clinically.
# MDA-MB-231 cells = assay: Growth inhibition, CellTiter-Glo, 7-day exposure, MDA-MB-231; format: cell-based; conditions: BRCA wild type
# Experimental: (§2) MDA-MB-231 cells that is not BRCA gene mutant or other homologous recombination deficient were maintained in DMEM supplemented with fetal bovine serum (10% FBS), 100 units/ml penicillin and 0.1 mg/ml streptomycin. BRCA1-deficient cell line MDA-MB-436 was maintained in RPMI-1640 supplemented with 10% FBS, 100 units/ml penicillin and 0.1 mg/ml streptomycin. Both two cell lines were kept at 95% humidity and 5% CO2 in a 37° C. incubator.
# (§3) The number of tumor cells seeded per well of a 96-well plate was optimized for each cell line to ensure logarithmic growth over the 7 days treatment period. Cells were left to attach for 16 hours and then treated with specific concentrations of test compounds. Following a 7-day exposure to the compound, the growth-inhibitory activity of compounds was determined using CellTiter-Glo luminescent cell viability assay (Promega). Luminescent signal was measured using PHERAstar FS reader (BMG Labtech). Cell viability was expressed as relative to mock treatment control. EC50 values for growth inhibition were calculated by fitting dose-dependent data to the four-parameter logistic model using XLfit software.
# [8] = Tissue distribution after oral administration in rats; format: in vivo; conditions: 24 hours post-dosing
# [9] = Plasma protein binding, human; format: in vitro ADME; conditions: read-out: Plasma protein binding (PPB) (converted)
# [10] = Metabolism in rat liver microsomes; format: in vitro ADME
# CYP2C9 = CYP2C9 (Homo sapiens, UniProt P11712); assay: CYP2C9 inhibition; format: in vitro ADME
# Chain of CYP2C9 (P11712 whole entry): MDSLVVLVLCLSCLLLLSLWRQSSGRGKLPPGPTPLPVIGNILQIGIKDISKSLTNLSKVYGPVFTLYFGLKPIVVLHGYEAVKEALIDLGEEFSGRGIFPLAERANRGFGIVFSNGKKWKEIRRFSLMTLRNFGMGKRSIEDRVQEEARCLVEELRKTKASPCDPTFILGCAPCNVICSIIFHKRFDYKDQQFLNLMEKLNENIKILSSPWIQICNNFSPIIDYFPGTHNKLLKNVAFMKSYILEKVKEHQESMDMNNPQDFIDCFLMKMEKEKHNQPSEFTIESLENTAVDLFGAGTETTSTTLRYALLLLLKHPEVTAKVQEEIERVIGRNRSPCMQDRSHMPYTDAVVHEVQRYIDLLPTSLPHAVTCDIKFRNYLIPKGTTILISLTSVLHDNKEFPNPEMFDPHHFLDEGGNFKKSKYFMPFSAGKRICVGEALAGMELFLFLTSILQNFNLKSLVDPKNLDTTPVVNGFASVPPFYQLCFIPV
# Pharmacokinetics in dog = format: in vivo
# Experimental: as §1
# human CYP3A = assay: CYP3A induction; format: in vitro ADME
# [11] = Metabolism in mouse liver microsomes; format: in vitro ADME
# [12] = tested on: intracranial H209 xenografts; assay: Intracranial H209 xenografts, combination with TMZ; format: in vivo, Mice; conditions: Compound A added to TMZ, compared to TMZ single agent
# [13] = tested on: MDA-MB-436 cells (BRCA1 Deficient); assay: Growth inhibition, CellTiter-Glo, 7-day exposure, MDA-MB-436; format: cell-based, human; conditions: for EC50: 7-day exposure, BRCA1 Deficient, read-out: EC50 for growth inhibition, MDA-MB-436 (Table 20)
# Experimental: as §2, §3
# [14] = Plasma protein binding, mouse; format: in vitro ADME; conditions: read-out: Plasma protein binding (PPB) (converted)
# [15] = Metabolism in dog liver microsomes; format: in vitro ADME
# rat plasma protein = assay: Plasma protein binding, rat; format: in vitro ADME
# CYP3A, CYP2C8 = assay: CYP isoforms responsible for metabolism; format: in vitro ADME
# other CYP isozymes = assay: Inhibition of other CYP isozymes; format: in vitro ADME; conditions: human; read-out: IC50s for other CYP isozymes
# [16] = Metabolism in human liver microsomes; format: in vitro ADME
# [17] = Plasma protein binding, monkey; format: in vitro ADME; conditions: read-out: Plasma protein binding (PPB) (converted)
# PARP = assay: In vivo pharmacodynamics: PARylation in MDA-MB-436 breast cancer xenografts; design: species or system BALB/c nude mice; conditions: 4 hours after single oral dose at 0.34 mg/kg or higher
# [18] = tested on: Intracellular PARP activity; format: cell-based; conditions: HeLa cells, H2O2 200 μM; read-out: IC50 (nM) in PARylation assay
# Experimental: Upon incubation with hydrogen peroxide (H2O2), Intracellular PARP activity was induced and endogenous PAR level was elevated. The assay was performed as follows:
# Cells were plated into a 96-well plate with clear bottom and black wall at a density of 5000 cells per well (100 μL). […] In the following day, H2O2 solution in PBS (final concentration 200 μM) was added and the plate was kept at 37° C. for 5 minutes. Then the medium was gently removed by plate inversion, and the cells were fixed by ice-cold MeOH at −20° C. for 20 minutes. […] After removal of solution and repeated wash with PBS, the PAR polymer level was estimated by ArrayScan VTI (ThermoFisher). Percent inhibition was determined on the basis of the residual enzyme activity in the presence of increasing PARP inhibitor concentration. IC50 values were calculated by fitting dose-dependent data to the four-parameter logistic model using XLfit software.
# [19] = read-out: EC50 for growth inhibition, MDA-MB-231 (Table 20)
smiles,measurement,setting,value
"C[C@]12CCCN1CC1=NNC(=O)c3cc(F)cc4[nH]c2c1c34 [Compound A sesqui-hydrate, (R)-2-fluoro-10a-methyl-7,8,9,10,10a,11-hexahydro-5,6,7a,11-tetraazacyclohepta[def]cyclopenta[a]fluoren-4(5H)-one sesqui-hydrate]",clinical safety and tolerability,"[1]; 25 subjects, 2.5-120 mg bid, capsules",safe and well tolerated
same,crystal form and optical purity on storage,"[2]; 25° C./60% RH and 40° C./75% RH, up to 12 months",no crystal form and optical purity changes were observed
same,"Assay w/w, T12",[2]; 25° C./60% RH,99.0%
same,"Assay w/w, T0",[2]; 25° C./60% RH,99.1%
same,"Assay w/w, T12",[2]; 40° C./75% RH,98.9%
same,"Assay w/w, T0",[2]; 40° C./75% RH,99.0%
same,hygroscopicity,Hygroscopicity,slightly hygroscopic
same,solubility in simulated gastric fluid (SGF),"Solubility study; SGF, pH=1.2",4.5 mg/mL
same,solubility,"Solubility study; simulated gastric fluid (SGF), pH 1.2, simulated gastric fluid, SGF, pH=1.2, read-out: solubility in simulated gastric fluid (SGF)",~4500 µg/mL
same,solubility in water,Solubility study; water,0.04 mg/mL
same,solubility,"Solubility study; water, read-out: solubility in water",~40 µg/mL
same,IC50,PARP2 (aa2-583),0.92 nM
"C[C@]12CCCN1CC1=NNC(=O)c3cc(F)cc4[nH]c2c1c34 [Compound A, (R)-2-fluoro-10a-methyl-7,8,9,10,10a,11-hexahydro-5,6,7a,11-tetraazacyclohepta[def]cyclopenta[a]fluoren-4(5H)-one]",tumor regression,[3],significantly induces tumor regression
same,brain penetration,Brain penetration,significant brain penetration
same,IC50,hERG current,26 µM
same,induction of human CYP2B6,human CYP2B6,not an inducer
same,accumulation following multiple oral dosing,Pharmacokinetics in rat,no accumulation
same,bioavailability,"Pharmacokinetics in rat; in vivo, po",> 40%
same,clearance,"Pharmacokinetics in rat; in vivo, rats",8.67 to 15.2 mL/min/kg
same,half-life,"Pharmacokinetics in rat; in vivo, rats, oral administration, read-out: Elimination half-lives",186 to 300 min
same,Vd,"Pharmacokinetics in rat; in vivo, rats, read-out: Steady state volume of distribution",2.4 L/kg
same,induction of human CYP1A2,human CYP1A2,not an inducer
same,excreted in urine and bile,[4],Less than 1%
same,mutagenicity,Ames assay,No mutagenicity
same,rate of metabolism,[5],quickly
same,fraction unbound,[6],0.21
same,clinical response,[1]; BRCA1/2 mutant ovary cancer patients,partial or complete responses
same,character of toxicity,[7]; 28-day recovery phase,"dose dependent, correlated with systemic exposure and reversible"
same,major target organ of toxicity,[7]; up to 28 days,bone marrow
same,EC50,"MDA-MB-231 cells; Homo sapiens, MDA-MB-231, 168 h, read-out: EC50 for growth inhibition, MDA-MB-231",~9 µM
same,EC50,"MDA-MB-231 cells; Homo sapiens, MDA-MB-231, 168 h, read-out: EC50 for growth inhibition, MDA-MB-231 (Table 20)",~9 µM
same,organ drug concentration as % of the peak concentration,[8],less than 10%
same,fraction unbound,[9],0.043
same,rate of metabolism,[10],slowly
same,IC50,CYP2C9,6.48 µM
same,accumulation following multiple oral dosing,Pharmacokinetics in dog,no accumulation
same,clearance,"Pharmacokinetics in dog; in vivo, dogs",18.3 to 18.5 mL/min/kg
same,half-life,"Pharmacokinetics in dog; in vivo, dogs, oral administration, read-out: Elimination half-lives",90 to 150 min
same,Vd,"Pharmacokinetics in dog; in vivo, dogs, read-out: Steady state volume of distribution",1.9 L/kg
same,bioavailability,"Pharmacokinetics in dog; in vivo, po",> 40%
same,induction of human CYP3A,human CYP3A,not an inducer
same,rate of metabolism,[11],slowly
same,animal survival,[12],significantly prolonged animal survival
same,sensitivity of MDA-MB-436 cells,[13]; BRCA1-deficient,profoundly sensitive
same,EC50,"[13]; Homo sapiens, MDA-MB-436, 168 h",41 ± 15 nM
same,fraction unbound,[14],0.15
same,rate of metabolism,[15],slowly
same,Plasma protein binding (PPB),rat plasma protein,84.9%
same,CYP isoform responsible for metabolism,"CYP3A, CYP2C8",CYP3A was the major CYP isoform
same,IC50,other CYP isozymes,> 10 µM
same,rate of metabolism,[16],slowly
same,fraction unbound,[17],0.111
same,inhibition of PARylation,PARP,Potent inhibition of PARylation
"O=C(c1cc(Cc2n[nH]c(=O)c3ccccc23)ccc1F)N1CCN(C(=O)C2CC2)CC1 [Olaparib, olaparib, reference compound]",EC50,MDA-MB-231 cells; [19],~5 µM
same,EC50,[13],21 ± 7 nM
"C[C@]1(c2nc3c(C(N)=O)cccc3[nH]2)CCCN1 [Veliparib, veliparib, reference compound]",IC50,[18],2.66 nM
same,EC50,MDA-MB-231 cells; [19],> 10 µM
same,EC50,[13],820 ± 300 nM

# Source: patent US10457680B2, “Process for preparing a PARP inhibitor, crystalline forms, and uses thereof” (BeiGene, Ltd., priority 2015, dated 2019)
